According to patent US6472175B1, “Sialylation of N-linked glycoproteins in the baculovirus expression vector system” (Boyce Thompson Institute For Plant Research, Inc., priority 1999, dated 2002):

Assays:
[1] = system: Tn-4h Insect Tissue Culture Cells; test: Measurement of total cellular sialic acid (colorimetric assay) in Tn-4h insect tissue culture cells; type: cell-based, Trichoplusia ni
Excerpt: Since substrate levels can affect sialylation, it was hypothesized that the microgravity-mediated sialylation might have resulted from an increase in substrate availability. […] This hypothesis was investigated further by comparing the concentration of sialic acid in cells grown in T-flasks and in HARV bioreactors.

[2] = system: Tn-4h cells; test: Sialylation of baculovirus-expressed SEAP N-linked glycans, normal phase HPLC of 2-AB-labeled glycans; type: cell-based, Trichoplusia ni; settings: normal gravity
Method: Once the SEAP protein is purified, the oligosaccharide moieties are cleaved from the glycoprotein with peptide N-glycosidase F (cleaves oligomannose, hybrid and complex oligosaccharides with or without terminal sialic acid residues). The oligosaccharides are then bonded to a fluorophore marker. The labeled sugar can be digested with various glycosidases that cleave specific linkages. The samples are analyzed by HPLC. Normal phase HPLC fractionations are carried out with a 50 mM ammonium phosphate, pH 4.4, and acetonitrile gradient on a Glyco Sep-N column (OGS, Oxford, UK) by a technique being known in the art, and incorporated by reference (Guile et al., 1996; Mattu et al., 1998). The Glyco Sep-N column is capable of resolving both neutral and charged sugar residues based on hydrophilicity (related to the hydrodynamic volume and molecular size). To obtain accurate glucose equivalency values, the GlycoSep-N is calibrated with a 2-aminobenzamide (2-AB) labeled dextran hydrolysate ladder and glucose homopolymers. The 2-AB fluorescence is detected and quantified using a Waters^a 474 Scanning Fluorescence Detector (Waters Corporation, MA) at λex 330 nm and λcm 420 nm using a 16 μl flow cell.
Since substrate levels can affect sialylation, it was hypothesized that the microgravity-mediated sialylation might have resulted from an increase in substrate availability. […]

[3] = system: mammalian (CHO) cells; settings: cited from earlier work

SMILES: CC(=O)N[C@@H]1C(O)O[C@H](CO)[C@@H](O)[C@@H]1O (stereo partly shown) [ManNAc, N-acetylmannosamine]
- change of sialic acid level, infected cells ([1]; addition to culture medium, infected Tn-4h cells): not infected cells
- change of sialic acid level, uninfected cells ([1]; addition to culture medium, uninfected Tn-4h cells): increased the levels of sialic acid in uninfected cells
- nMoles Sialic Acid per mg Cell Protein, Infected ([1]; baculovirus infected Tn-4h cells, T-flask, medium supplemented with 5 mM ManNAc): 98 ± 9 nMoles Sialic Acid per mg Cell Protein
- nMoles Sialic Acid per mg Cell Protein, Uninfected ([1]; uninfected Tn-4h cells, T-flask, medium supplemented with 5 mM ManNAc): 62 ± 7 nMoles Sialic Acid per mg Cell Protein
- sialylated SEAP glycans identified ([2]; 5 mM in medium, stationary T-flasks, Tn-4h cells): five sialylated SEAP glycans were identified
- induction of complex, sialylated glycans on a secreted human glycoprotein ([2]; culture media supplemented, insect tissue culture cells): induced to produce complex, sialylated glycans
- effect on sialylation [3]: increase sialylation
